Results: patent US20070249648A1, “Novel Diazaspiroalkanes and Their Use for Treatment of Ccr8 Mediated Diseases” (priority 2003, published 2007)
pIC50: −log10 of the molar value. Structures can show the parent of a compound that is named as a salt.

Molecular target: T1, human recombinant chemokine CCR8 receptor (Homo sapiens, UniProt P51685)
T1 construct: purchased Euroscreen ES-136-M; host or cells: CHO-K1 cells (membrane preparation)
Experiment: CCL1 SPA Binding Assay
Details: 125I CCL1 (30 pM) binding to membranes from CHO-K1 cells transfected with CCR8, Wheat Germ Agglutinin SPA beads; typical data
Procedure: Membranes from CHO-K1 cells transfected with human recombinant chemokine CCR8 receptor (ES-136-M) were purchased from Euroscreen. Membrane preparations are stored at −70C in 7.5 mM Tris-Cl pH 7.5, 12.5 mM MgCl2, 0.3 mM EDTA, 1 mM EGTA, 250 mM sucrose until used.
The CCR8 membranes ([…]) were preincubated with Wheat Germ Agglutinin SPA beads (4.05 mg/ml) in assay buffer (50 mM HEPES, 1 mM CaCl2x2H2O, 5 mM MgCl2x6H2O, 75 mM NaCl, 0.1% BSA) at pH=7.4 for 2 hours on ice. A 10-point dose-response curve (final concentrations 50 μM, 16.7 μM, 5.6 μM, 1.9 μM, 0.62 μM, 0.21 μM, 0.069 μM, 0.023 μM) was prepared by diluting compounds by serial dilution 1:3 in DMSO. In the screening plate (Polystyrene NBS plates, Costar Corning 3604) 1 μl from the DMSO solutions of compounds was transferred into each well. 1 μl of DMSO was added to the blank control wells and 1 μl unlabeled CCL1 (300 nM) was added to background control wells. 50 μl of the SPA bead-membrane mixture was added into each well. Finally, 50 μl (30 pM) ^125I CCL1 (2000 Ci/mM) was added to each well. Plates were then incubated at RT with shaking (700 rpm) for 90 minutes followed by 30 minutes at RT without shaking. The plate was read in a Wallac MicroBeta counter for 2 minutes/well.

T1 sequence (P51685 whole entry): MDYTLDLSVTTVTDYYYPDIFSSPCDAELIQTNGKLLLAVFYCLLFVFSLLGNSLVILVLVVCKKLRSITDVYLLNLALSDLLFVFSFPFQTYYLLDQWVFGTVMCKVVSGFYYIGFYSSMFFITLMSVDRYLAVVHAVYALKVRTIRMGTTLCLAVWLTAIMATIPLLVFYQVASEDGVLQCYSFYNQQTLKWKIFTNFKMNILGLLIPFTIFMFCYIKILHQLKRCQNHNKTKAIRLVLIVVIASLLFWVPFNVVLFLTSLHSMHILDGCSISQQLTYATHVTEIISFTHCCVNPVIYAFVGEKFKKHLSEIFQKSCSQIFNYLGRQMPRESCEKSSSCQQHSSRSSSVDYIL

pIC50 | SMILES
6.15 | Cc1noc(C)c1COc1ccccc1CN1CCC2(CC1)CCN(C(=O)c1ccccc1)CC2 [3-benzoyl-9-{2-[(3,5-dimethylisoxazol-4-yl)methoxy]benzyl}-3,9-diazaspiro[5.5]undecane trifluoroacetate]
6.78 | CCCOc1ccccc1CN1CCC2(CC1)CCN(C(=O)c1ccccc1)CC2 [3-benzoyl-9-(2-propoxybenzyl)-3,9-diazaspiro[5.5]undecane trifluoroacetate]
